Results on 2 compounds are retold here after US5496805A, “Inhibitors of neutral endopeptidase” (priority 1990, dated 1996).

For assay [1], the target named is T1, neutral endopeptidase (Rattus norvegicus, UniProt P07861).
T1 sequence (P07861 1-750): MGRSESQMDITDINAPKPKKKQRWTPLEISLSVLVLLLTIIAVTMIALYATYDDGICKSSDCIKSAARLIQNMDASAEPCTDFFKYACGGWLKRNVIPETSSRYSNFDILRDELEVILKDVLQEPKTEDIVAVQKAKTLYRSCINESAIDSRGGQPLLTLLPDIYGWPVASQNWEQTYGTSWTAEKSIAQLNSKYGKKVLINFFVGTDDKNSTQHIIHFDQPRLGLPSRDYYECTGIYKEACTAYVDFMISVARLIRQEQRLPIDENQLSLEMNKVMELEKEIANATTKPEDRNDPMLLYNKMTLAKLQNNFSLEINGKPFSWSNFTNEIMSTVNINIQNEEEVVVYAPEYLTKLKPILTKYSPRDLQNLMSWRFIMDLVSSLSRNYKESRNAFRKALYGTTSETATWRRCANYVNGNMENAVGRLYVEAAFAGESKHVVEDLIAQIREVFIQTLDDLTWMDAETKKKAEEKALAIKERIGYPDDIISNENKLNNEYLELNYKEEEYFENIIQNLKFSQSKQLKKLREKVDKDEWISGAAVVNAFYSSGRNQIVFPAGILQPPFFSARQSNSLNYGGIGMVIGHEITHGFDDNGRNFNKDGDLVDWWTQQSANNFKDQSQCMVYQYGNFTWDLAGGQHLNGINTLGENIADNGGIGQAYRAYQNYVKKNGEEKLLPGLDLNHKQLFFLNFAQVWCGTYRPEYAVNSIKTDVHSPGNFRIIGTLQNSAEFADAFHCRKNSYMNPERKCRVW
Kind of assay: biochemical. Conditions: enzyme purified from rat kidney; Dns-Gly-Phe-Arg 0.5 mM; pH 7.5; 37°, 30 minutes; inhibitor preincubated 10 minutes. The procedure, abridged:
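Rat kidney-purified enzyme in 0.05% Triton X-100 was preincubated 10 min with inhibitor in 50 mM Tris-HCl pH 7.5, then reacted with 0.5 mM Dns-Gly-Phe-Arg for 30 min at 37°. After HCl stop, Dns-Gly was extracted into ethyl acetate and its fluorescence read (ex 342/em 508 nm). IC50 came from multi-concentration runs.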

Assay [2] concerns neutral endopeptidase. Kind of assay: inhibition of neutral endopeptidase. In kind it is biochemical.
Assay [3] deals with neutral endopeptidase. The conditions noted are these: in vivo; cited from earlier work.
Assay [4] concerns pig kidney microvillar membranes. The conditions noted are these: in vitro; cited from earlier work.
For assay [5], the system named is enkephalinase. Conditions: cited from earlier work.

Molecules are shown by their SMILES.

As a reminder, the IC50 is the concentration at which inhibition is half-maximal.

For `CC(C)C[C@H](NP(=O)(O)O[C@@H]1O[C@@H](C)[C@H](O)[C@@H](O)[C@H]1O)C(=O)N[C@@H](Cc1c[nH]c2ccccc12)C(=O)O` [Example 72, N-(α-L-Rhamnopyranosyloxyhydroxyphosphinyl)-L-leucyl-L-tryptophan], the half-maximal inhibitory concentration (IC50) in assay [1] is 3.8 nM. For the same compound, the “inhibition of neutral endopeptidase” value in assay [2] was “inhibits neutral endopeptidase”. Also, in assay [3], the excretion of kinins result was “increased excretion of kinins”, the sodium excretion result is listed as “increased sodium excretion”, the urinary kininase activity entry was “decreased urinary kininase activity” and the urine volume entry was “increased urine volume”. Moreover, the “hydrolysis of α-human atrial natriuretic peptide” value in assay [4] is reported as “suppressed”.

Turning to `O=C(O)CNC(=O)C(CS)Cc1ccccc1` (centres unmarked) [thiorphan, [(D,L)-3-mercapto-2-benzylpropanol]glycine], in assay [5], the “inhibitor of enkephalinase in vitro” value is recorded as “nanomolar concentrations”.
